Experimental data reported in BindingDB's records for patent US20240262835 (Antengene Discovery, 2024).

Target: Methylosome protein 50/Protein arginine N-methyltransferase 5 (Homo sapiens, UniProt O14744)
Assay: PRMT5/MEP50 HotSpot Methyltransferase Assay
Description: Table 2: The assay used recombinant full-length histone H2A as the substrate of PRMT5. Enzymatic transfer of the tritiated methyl group from S-adenosyl-L-[methyl-3H]methionine (3H-SAM) to the histone H2A protein generated a radiolabeled histone H2A by measuring in a scintillation counter to determine the activity of PRMT5 enzyme in the presence and absence of compound. The assay reactions were conducted in the presence of 100 nM MTA. Briefly, compounds were solubilized in 100% DMSO at the highest concentration of 10 mM. […] Control samples lacking compound, PRTM5/MEP50 complex or various reaction components also were prepared and processed in parallel with compound test samples. SAH was used as a positive control for assay validation. To measure PRMT5 inhibitory activity, 1 nM PRTM5/MEP50 complex was preincubated with test compound in assay buffer containing 5 μM full-length histone H2A for 15 minutes at room temperature. The enzymatic reaction was initiated by adding 1 μM 3H-SAM (final concentration) and the mixture was incubated at 30° C. for 1 hour. The reaction was stopped and transferred to filter paper for detection. The amount of tritiated H2A in each sample was determined using a scintillation counter.

Chain of Methylosome protein 50/Protein arginine N-methyltransferase 5 (O14744 whole entry): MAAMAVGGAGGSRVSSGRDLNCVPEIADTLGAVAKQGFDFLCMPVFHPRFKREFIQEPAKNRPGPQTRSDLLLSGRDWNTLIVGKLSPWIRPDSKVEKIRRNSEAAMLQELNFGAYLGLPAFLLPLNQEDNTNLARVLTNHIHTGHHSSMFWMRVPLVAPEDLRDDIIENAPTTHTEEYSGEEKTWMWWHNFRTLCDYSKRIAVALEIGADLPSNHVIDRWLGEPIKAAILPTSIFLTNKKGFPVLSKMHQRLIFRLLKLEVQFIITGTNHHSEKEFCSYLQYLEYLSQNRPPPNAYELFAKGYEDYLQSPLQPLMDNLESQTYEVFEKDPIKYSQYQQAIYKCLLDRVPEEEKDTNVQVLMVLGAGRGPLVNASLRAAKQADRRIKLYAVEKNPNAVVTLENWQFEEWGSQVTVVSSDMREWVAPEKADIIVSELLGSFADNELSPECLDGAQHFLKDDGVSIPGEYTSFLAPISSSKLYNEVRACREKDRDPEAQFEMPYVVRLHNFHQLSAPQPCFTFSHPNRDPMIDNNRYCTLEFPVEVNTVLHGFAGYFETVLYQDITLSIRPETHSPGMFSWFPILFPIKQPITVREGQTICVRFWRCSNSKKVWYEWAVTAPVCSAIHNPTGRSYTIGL
Chain of Methylosome protein 50/Protein arginine N-methyltransferase 5 (Q9BQA1 whole entry, further chain): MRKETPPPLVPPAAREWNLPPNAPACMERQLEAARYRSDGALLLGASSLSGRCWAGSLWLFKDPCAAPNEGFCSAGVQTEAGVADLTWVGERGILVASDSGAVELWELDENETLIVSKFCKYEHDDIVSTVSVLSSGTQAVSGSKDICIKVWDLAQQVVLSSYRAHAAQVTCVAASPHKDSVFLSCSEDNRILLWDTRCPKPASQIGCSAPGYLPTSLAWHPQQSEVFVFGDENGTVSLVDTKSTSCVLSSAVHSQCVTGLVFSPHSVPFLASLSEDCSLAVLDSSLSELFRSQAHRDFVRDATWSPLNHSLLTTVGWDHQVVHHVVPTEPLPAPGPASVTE

| Compound | IC50 [nM] |
| --- | --- |
| C[C@H](c1ncccn1)N(Cc1ccc(C(F)(F)F)cn1)C(=O)c1ccc2nc(N)n3cncc3c2c1 [US20240262835, Compound 5] | 81 |
| C[C@H](c1ncccn1)N(Cc1ccc(C(F)(F)F)cn1)C(=O)c1cc2c(cc1F)nc(N)c1cncn12 [US20240262835, Compound 6] | 101 |
| C[C@H](c1ncccn1)N(Cc1ccc(C(F)(F)F)cn1)C(=O)c1cc2c(cn1)nc(N)c1cncn12 [US20240262835, Compound 10] | 379 |

Stronger by IC50, values ahead:

| IC50 [nM] | Compound |
| --- | --- |
| 8 | Cn1ncc(-c2ccc3c(c2)nc(N)c2cncn23)c1-c1c(F)cc2ccccc2c1C#N [US20240262835, Compound 1] |
| 64 | C[C@H](c1ncccn1)N(Cc1ccc(C(F)(F)F)cn1)C(=O)c1ccc2nc(N)c3cncn3c2c1 [US20240262835, Compound 3] |
| 6 | C[C@H]1CC[C@H](c2ccc3c(c2)CCC(=O)N3)N(C(=O)c2ccc3nc(N)c4cncn4c3c2)C1 [US20240262835, Compound 4] |
